Results: patent US8574837B2, “System for screening agonists/antagonists of cellular signaling pathways” (President and Fellows of Harvard College, priority 2008, dated 2013)

Columns and labels:
[1] = target: T1, Smo (Homo sapiens, UniProt Q99835); experiment: Smo translocation assay (A1::Smo::GFP / Smo colocalization with Arl13b at the primary cilium); assay type: cell-based; details: for Smo translocation to the primary cilium, agent applied alone: NIH/3T3 cells, ShhN 25 nM, SAG 200 nM, purmorphamine, 20-OHC, cyclopamine, GANT61 10 μM, SANT-1, SANT-2 1 μM, 24 hr; for ShhN-dependent translocation of Smo to the primary cilium, antagonist plus ShhN: ShhN 25 nM plus SANT-1 or SANT-2 1 μM or GANT61 10 μM, FIG. 6
T1 construct: expressed in transfected cells; host or cells: NIH/3T3 (mouse fibroblasts), retroviral infection with pBabe-A1::Smo::GFP, clonal lines
Procedure: All 3T3 cell lines were plated at a density of 1×10^4 cells per well in fibronectin coated Lab-Tek™ Chamber Slides (Nunc, 178599). The cells were grown to confluence, then switched to […] containing 0.5% BCS with indicated treatments for 24 hr or as stated elsewhere herein. Immunostaining was performed after fixation in 4% Paraformaldehyde (PFA) according to standard protocols. AcpS labeling reactions were performed as described previously (Zhou et al., 2007). Fluorescent images were collected after fixing samples using a Zeiss LSM510 META on an inverted microscope, with a 63× (1.4 NA) oil-immersion objective lens utilizing four laser lines (405 nm, 488 nm, 543 nm, 633 nm).
Mouse recombinant ShhN purified protein was purchased from R&D Systems (#464-SH-025). SAG, SANT-2, and GANT61 were purchased from Axxora (#ALX-270-426, #ALX-270-436, #ALX-270-482; Axxora, LLC, San Diego, Calif.). SANT-1 was obtained from Tocris Bioscience (#1974). DMSO was from Sigma Aldrich (D2650). Purmorphamine was from Calbiochem (#540220). […] AcpS, Texas Red-CoA, and Alexa633-CoA were prepared as described previously (Zhou et al., 130 J. Am. Chem. Soc. 9925-30 (2008)).

[2] = target: Smo (Mus musculus, UniProt P56726); details: cited from earlier work
[3] = test system: SmoA1; details: cited from earlier work
[4] = test system: UV-irradiated Ptch1^+/− mice; details: prolonged systemic treatment; cited from earlier work
[5] = test system: Hh signaling; experiment: Gli-luciferase assay (Ptch1-promoter driven luciferase reporter); assay type: cell-based, mouse; details: NIH/3T3 cells, RNAi knock down of suFU; FIG. 3
Procedure: Cells were plated at a density of 5×10^4 per well in 24-well plates 18 hr prior to transfection. DNA transfection was performed using Lipofectamine™ 2000 transfection reagent (Invitrogen, #11668); the DNA introduced in each well included 100 ng CMV driven Renilla luciferase construct, 300 ng Ptch1 promoter-driven firefly luciferase construct, and 400 ng of each shRNA construct or a PBS plasmid as a control. Cells were grown for two days; then the medium was changed to DMEM containing 0.5% BCS and proteins/compounds indicated in the text. Cells were cultured for an additional 48 hr, tryspinized, lysed and assayed using a Promega Dual Luciferase Reporter Essay System Kit (E1910). Renilla luciferase signal was used to normalize the firefly luciferase signal. The RNAi efficiency was measured as previous described (Varjosalo et al., 2006). In all luciferase assays, every condition was repeated in quadruplicate wells and experiments were repeated at least three times.
Mouse recombinant ShhN purified protein was purchased from R&D Systems (#464-SH-025). SAG, SANT-2, and GANT61 were purchased from Axxora (#ALX-270-426, #ALX-270-436, #ALX-270-482; Axxora, LLC, San Diego, Calif.). SANT-1 was obtained from Tocris Bioscience (#1974). DMSO was from Sigma Aldrich (D2650). Purmorphamine was from Calbiochem (#540220). […]

[6] = target: T2, Gli1 (Homo sapiens, UniProt P08151); details: cited from earlier work
T2 sequence (P08151 1-1106): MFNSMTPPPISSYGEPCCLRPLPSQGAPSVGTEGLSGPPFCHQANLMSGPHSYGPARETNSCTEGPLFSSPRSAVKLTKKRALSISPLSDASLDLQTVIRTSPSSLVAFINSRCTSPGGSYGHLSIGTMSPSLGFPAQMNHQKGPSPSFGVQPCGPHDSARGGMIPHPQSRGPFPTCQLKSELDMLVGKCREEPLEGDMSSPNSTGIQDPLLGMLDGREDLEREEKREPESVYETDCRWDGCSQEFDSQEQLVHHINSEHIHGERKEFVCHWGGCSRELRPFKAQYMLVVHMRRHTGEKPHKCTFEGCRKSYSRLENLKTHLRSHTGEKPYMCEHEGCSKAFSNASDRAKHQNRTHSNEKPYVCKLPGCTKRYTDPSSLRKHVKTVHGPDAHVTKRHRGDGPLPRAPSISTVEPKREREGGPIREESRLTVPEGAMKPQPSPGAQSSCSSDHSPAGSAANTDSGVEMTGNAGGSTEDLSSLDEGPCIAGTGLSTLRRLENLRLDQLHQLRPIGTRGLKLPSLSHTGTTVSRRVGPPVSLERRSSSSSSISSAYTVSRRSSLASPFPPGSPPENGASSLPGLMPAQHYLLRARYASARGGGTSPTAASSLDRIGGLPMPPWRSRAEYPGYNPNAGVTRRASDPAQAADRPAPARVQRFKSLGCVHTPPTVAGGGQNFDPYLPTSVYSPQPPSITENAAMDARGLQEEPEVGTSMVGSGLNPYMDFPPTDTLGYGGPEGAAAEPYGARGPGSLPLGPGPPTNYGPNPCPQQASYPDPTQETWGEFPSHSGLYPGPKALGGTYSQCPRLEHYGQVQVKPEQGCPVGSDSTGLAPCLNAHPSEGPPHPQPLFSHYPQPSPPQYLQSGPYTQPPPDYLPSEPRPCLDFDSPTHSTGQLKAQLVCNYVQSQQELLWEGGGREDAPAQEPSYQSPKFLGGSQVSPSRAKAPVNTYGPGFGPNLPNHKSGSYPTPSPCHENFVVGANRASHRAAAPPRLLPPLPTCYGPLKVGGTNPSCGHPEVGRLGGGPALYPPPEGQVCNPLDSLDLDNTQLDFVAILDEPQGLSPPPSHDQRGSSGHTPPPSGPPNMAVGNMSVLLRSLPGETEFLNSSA

T1 sequence (Q99835 28-787): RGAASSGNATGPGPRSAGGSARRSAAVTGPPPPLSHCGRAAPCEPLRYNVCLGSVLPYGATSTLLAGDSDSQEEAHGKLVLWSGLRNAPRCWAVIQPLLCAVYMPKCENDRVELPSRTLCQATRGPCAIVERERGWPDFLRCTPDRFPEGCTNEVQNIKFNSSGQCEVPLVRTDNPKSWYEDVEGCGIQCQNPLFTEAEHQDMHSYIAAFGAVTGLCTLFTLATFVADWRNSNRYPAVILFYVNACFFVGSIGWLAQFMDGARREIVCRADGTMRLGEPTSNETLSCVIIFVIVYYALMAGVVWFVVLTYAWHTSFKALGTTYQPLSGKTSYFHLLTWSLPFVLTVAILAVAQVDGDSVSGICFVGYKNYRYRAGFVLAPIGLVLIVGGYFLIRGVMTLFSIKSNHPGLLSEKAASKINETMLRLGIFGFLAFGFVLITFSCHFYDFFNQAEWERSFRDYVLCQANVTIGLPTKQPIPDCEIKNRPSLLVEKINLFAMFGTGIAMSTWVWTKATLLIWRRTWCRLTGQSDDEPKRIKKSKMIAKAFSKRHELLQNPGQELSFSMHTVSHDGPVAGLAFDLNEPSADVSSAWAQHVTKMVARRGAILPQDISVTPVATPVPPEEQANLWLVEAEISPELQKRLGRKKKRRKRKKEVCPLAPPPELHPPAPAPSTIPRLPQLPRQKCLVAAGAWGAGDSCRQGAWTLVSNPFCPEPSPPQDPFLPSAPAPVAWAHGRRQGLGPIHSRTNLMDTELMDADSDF
Smo (Mus musculus, UniProt P56726), sequence (P56726 33-793): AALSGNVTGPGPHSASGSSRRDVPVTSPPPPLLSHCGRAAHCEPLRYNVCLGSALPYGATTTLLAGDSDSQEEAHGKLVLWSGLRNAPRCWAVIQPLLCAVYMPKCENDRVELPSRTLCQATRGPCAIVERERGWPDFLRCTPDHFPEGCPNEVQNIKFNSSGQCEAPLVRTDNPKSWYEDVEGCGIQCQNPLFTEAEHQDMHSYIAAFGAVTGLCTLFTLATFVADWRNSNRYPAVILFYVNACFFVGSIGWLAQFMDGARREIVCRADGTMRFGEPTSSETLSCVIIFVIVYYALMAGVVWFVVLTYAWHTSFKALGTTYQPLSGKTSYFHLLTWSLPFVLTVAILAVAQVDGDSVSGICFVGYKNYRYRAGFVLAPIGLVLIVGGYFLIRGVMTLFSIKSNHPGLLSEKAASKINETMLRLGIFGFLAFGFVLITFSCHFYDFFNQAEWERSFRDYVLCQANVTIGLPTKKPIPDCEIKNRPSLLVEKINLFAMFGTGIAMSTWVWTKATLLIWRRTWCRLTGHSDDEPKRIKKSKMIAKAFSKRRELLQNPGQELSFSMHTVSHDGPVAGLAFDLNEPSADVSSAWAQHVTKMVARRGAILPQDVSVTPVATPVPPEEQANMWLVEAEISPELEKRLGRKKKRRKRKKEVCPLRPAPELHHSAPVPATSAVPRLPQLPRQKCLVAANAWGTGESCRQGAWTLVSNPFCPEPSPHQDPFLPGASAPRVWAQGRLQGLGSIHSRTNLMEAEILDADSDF

Compound | Smo translocation to the primary cilium, agent applied alone [1] | ShhN-dependent translocation of Smo to the primary cilium, antagonist plus ShhN [1] | other results
CC(C)CCC[C@](C)(O)[C@H]1CC[C@H]2[C@@H]3CC=C4C[C@@H](O)CC[C@]4(C)[C@H]3CC[C@@]21C [20-OHC, 20α-hydroxycholesterol] | Smo translocated to the primary cilium | – | –
CCOc1cc(C(=O)Nc2ccc(Cl)c(-c3nc4ccccc4[nH]3)c2)cc(OCC)c1OCC [SANT-2] | do not induce obvious localization change of Smo | abrogate the ShhN-dependent translocation of Smo to the primary cilium | Competition for cyclopamine binding of Smo [2]: compete for cyclopamine binding of Smo; Inhibition of SmoA1 activity, dose relative to wild-type Smo [3]: at a comparable dose to that required to inhibit wild-type Smo
CNC1CCC(N(Cc2cccc(-c3ccncc3)c2)C(=O)c2sc3ccccc3c2Cl)CC1 (centres unmarked) [SAG] | Smo translocated to the primary cilium | – | –
CC1=C2C[C@H]3[C@@H](CC=C4C[C@@H](O)CC[C@@]43C)[C@@H]2CC[C@]12O[C@@H]1C[C@H](C)CN[C@H]1[C@H]2C [cyclopamine] | drove Smo to the primary cilium | – | Tumor formation [4]: significantly diminish tumor formation
Cc1nn(-c2ccccc2)c(C)c1/C=N/N1CCN(Cc2ccccc2)CC1 [SANT-1] | do not induce obvious localization change of Smo | abrogate the ShhN-dependent translocation of Smo to the primary cilium | Competition for cyclopamine binding of Smo [2]: compete for cyclopamine binding of Smo; Inhibition of SmoA1 activity, dose relative to wild-type Smo [3]: at a comparable dose to that required to inhibit wild-type Smo
CN(C)c1ccccc1CN1CCCN(Cc2ccccc2N(C)C)C1c1ccncc1 [GANT61] | do not induce obvious localization change of Smo | abrogate the ShhN-dependent translocation of Smo to the primary cilium | Gli activity when the endogenous Gli antagonist suFU was knocked down [5]: inhibited Gli activity; Gli1 binding to DNA [6]: inhibits Gli1 binding to DNA
c1ccc2c(Oc3nc(Nc4ccc(N5CCOCC5)cc4)c4ncn(C5CCCCC5)c4n3)cccc2c1 [purmorphamine] | Smo translocated to the primary cilium | – | –
